Laboratory results as given in patent US11547706B2, “Methods and compositions for reducing tactile dysfunction and anxiety associated with autism spectrum disorder, Rett syndrome, and Fragile X syndrome” (President and Fellows of Harvard College, priority 2016, dated 2023).
Entries after “also recorded” stand apart in the source; their conditions may differ.

Key:
[1] = system: Advillin^Cre; Mecp2^f/y mutant mice; test: Tactile PPI assay after drug injection; assay type: in vivo, mouse; conditions: Midazolam 2.5 mg/kg or isoguvacine 1 mg/kg injection
Method: (§1) FIG. 15A is a graph showing the startle response of Advillin^Cre; Mecp2^f/y mutant mice and control littermates following injection of: vehicle (saline), Bumetanide (0.2 mg/kg), Midazolam (2.5 mg/kg) or isoguvacine (1 mg/kg). […] FIG. 15B is a graph showing the response to tactile PPI of Advillin^Cre; Mecp2^f/y mutant mice and control littermates following injection of: vehicle (saline), Bumetanide (0.2 mg/kg), Midazolam (2.5 mg/kg) or isoguvacine (1 mg/kg). […] FIG. 15C is a graph showing the response to air puff alone of Advillin^Cre; Mecp2^f/y mutant mice and control littermates following injection of: vehicle (saline), Bumetanide (0.2 mg/kg), Midazolam (2.5 mg/kg) or isoguvacine (1 mg/kg).
(§2) The response of mice to tactile and acoustic startle stimuli, and the ability of a tactile or acoustic stimulus to inhibit startle to a loud acoustic stimulus was measured using a San Diego Instruments startle reflex system (SR-LAB™ Startle Response System). […] Air puffs were administered to the back of the mouse to assess hairy skin sensitivity. […]
(§3) For acoustic PPI, the prepulse was 20 ms in duration and presented 100 ms before the startle pulse (inter-stimulus interval, ISI). […] Whole body flinch, or startle reflex, was quantitated using an accelerometer sensor measuring the amplitude of movement of the animal, within the cylindrical holder.

[2] = system: Advillin^Cre; Mecp2^f/y mutant mice; test: Response to air puff stimulus alone after drug injection; assay type: in vivo, mouse; conditions: Midazolam 2.5 mg/kg or isoguvacine 1 mg/kg injection
Method: as §1
The response of mice to tactile and acoustic startle stimuli, and the ability of a tactile or acoustic stimulus to inhibit startle to a loud acoustic stimulus was measured using a San Diego Instruments startle reflex system (SR-LAB™ Startle Response System). […] Air puffs were administered to the back of the mouse to assess hairy skin sensitivity. […] In addition, this prepulse intensity was chosen because it produced significant inhibition of startle reflex at multiple (ISIs). […]

[3] = system: large diameter DRG neurons cultured from control mice; test: Whole cell patch clamp recordings of cultured large diameter DRG neurons; assay type: cell-based, mouse; conditions: 10 μM isoguvacine, 5 minutes after application
Description: Repeated measures one-way ANOVA, *, p<0.05. […] Student's paired t-test, p<0.05. […] Repeated measures one-way ANOVA, *, p<0.05. […] Student's paired t-test, p<0.05.
These exciting findings prompted us to ask whether peripherally restricted GABAA receptor agonists could also be used to ameliorate tactile hypersensitivity and other behavioral deficits in ASD models. We utilized a peripherally restricted GABAA receptor agonist, isoguvacine, to determine whether augmenting GABAA receptor signaling at DRG cell bodies could reduce excitability of primary somatosensory afferents.

[4] = system: large diameter DRG neurons cultured from Shank3B^+/- or Mecp2^STOP/y mice; test: Whole cell patch clamp recordings of cultured large diameter DRG neurons from mutant mice; assay type: cell-based, mouse; conditions: 10 μM isoguvacine; for resting membrane potential / rheobase, excitability: neurons from Shank3B^+/- or Mecp2^STOP/y mice
Description: Repeated measures two-way ANOVA with post-hoc Tukey's test: *, p<0.05. […] Repeated measures two-way ANOVA with post-hoc Tukey's test: *, p<0.05. […] Repeated measures two-way ANOVA with post-hoc Tukey's test: *, p<0.05. […] Repeated measures two-way ANOVA with post-hoc Tukey's test: *, p<0.05.
We next determined whether isoguvacine could improve electrophysiological deficits observed in large diameter peripheral somatosensory neurons cultured from Shank3 and Mecp2 mutant mice.

[5] = system: Mecp2, Shank3 and Fmr1 mutant mice; test: Tactile PPI assay in multiple ASD mouse models; assay type: in vivo; conditions: 1 mg/kg, i.p., acute, 30 minutes before test
Method: (§4) Values are expressed as percent of control littermates' performance. Experiments were performed in mutant mice (Advillin^Cre; Mecp2^f/y, Shank3B^+/− or Fmr1^−/y) and control littermates, 30 minutes after an intraperitoneal (i.p.) of either saline (vehicle) or Isoguvacine (1 mg/kg). Two-way ANOVA, with post-hoc Holm-Sidak's test, *, p<0.05, when comparing mutants to control within same treatment; #, p<0.05, when comparing the same genotype across different treatments. FIG. 56B is a graph of response to a light air puff stimulus alone (0.9 PSI, 50 ms). Responses are expressed as a percent of startle response to a 125-B noise. Experiments were performed in mutant mice (Advillin^Cre; Mecp2^f/y, Shank3B^+/− or Fmr1^−/y) and control littermates, 30 minutes after an intraperitoneal (i.p.) of either saline (vehicle) or isoguvacine (1 mg/kg). Two-way ANOVA, with post-hoc Holm-Sidak's test, *, p<0.05, and t, p<0.10, when comparing mutants to control within same treatment; #, p<0.05, when comparing the same genotype across different treatments. FIG. 56C is a graph of magnitude of startle response to a 125-dB noise. […]
(§5) The response of mice to tactile and acoustic startle stimuli, and the ability of a tactile or acoustic stimulus to inhibit startle to a loud acoustic stimulus was measured using a San Diego Instruments startle reflex system (SR-LAB™ Startle Response System). […]

[6] = system: mice including Advillin^Cre; Mecp2^floxed mutant mice; test: Open field test after isoguvacine; assay type: in vivo, mouse; conditions: 1 mg/kg, i.p.
Method: as §4
On the first day of behavioral testing, animals were subjected to the open field test. […] A portion of videos were blindly hand-scored to verify accuracy. Distance traveled and time spent away from walls (time in center) were analyzed per 10-minute video.

[7] = system: control mice; test: Tactile PPI with back hairy skin pretreated with lidocaine; assay type: in vivo, mouse
Method: FIG. 1A is an image showing a smooth textured object (left) and a rough textured object (right) used in the textured NORT. FIG. 1B is a schematic outlining the protocol for the three NORT assays. FIG. 1C is a graph showing the discrimination indices for textured NORT. A positive value indicates preference for the novel object, compared to the familiar object. *, p<0.05. FIG. 1D is a graph showing the discrimination indices for 5 minute control NORT. A positive value indicates preference for the novel object, compared to the familiar object. *, p<0.05. FIG. 1E is a graph showing the discrimination indices for 1 hour control NORT. A positive value indicates preference for the novel object, compared to the familiar object. *, p<0.05. FIG. 1F is a schematic showing the tactile PPI assay. […] Responses are expressed as percent of startle response to a 125 dB noise. *, p<0.01. […] Responses are expressed as percent of startle response to a 125 dB noise. *, p<0.05. […]
as §5

[8] = system: Advillin^Cre; Mecp2^f/y mutant mice and control littermates; test: Magnitude of startle response to a 125 dB noise after drug injection; assay type: in vivo, mouse; conditions: Midazolam 2.5 mg/kg injection, compared to animals treated with vehicle
Method: as §1, §2, §3

Structure (SMILES) | responses in the tactile PPI assay [1] | response to an air puff stimulus alone [2] | minimal current required to produce an action potential (rheobase), excitability [3] | resting membrane potential [3] | rheobase compared with neurons cultured from control littermates ([4]; neurons from Shank3B^+/- and Mecp2^STOP/y mice) | resting membrane potential [4] | rheobase, excitability [4] | resting membrane potential ([4]; listed as Isoguvacine) | rheobase, excitability ([4]; listed as Isoguvacine) | tactile hypersensitivity, as measured by the tactile PPI assay [5] | time spent in the center of a chamber during the open field test [6] | tactile PPI [7] | startle amplitude [8]
O=C(O)C1=CCNCC1 [isoguvacine] | trend toward normalized responses | decreased response to an air puff stimulus alone | decreases excitability; also recorded: increase in the amount of minimal current required to produce an action potential | reduces resting membrane potential; also recorded: decrease in resting membrane potential | rheobase was no longer different than neurons cultured from control littermates | significant decrease in resting membrane potential | increase in rheobase | reduces resting membrane potential | decreases excitability | significantly reduces tactile hypersensitivity | enhanced the time spent in the center | – | –
CCN(CC)CC(=O)Nc1c(C)cccc1C [lidocaine] | – | – | – | – | – | – | – | – | – | – | – | abolished | –
Cc1ncc2n1-c1ccc(Cl)cc1C(c1ccccc1F)=NC2 [Midazolam] | trend toward normalized responses | decreased response to an air puff stimulus alone | – | – | – | – | – | – | – | – | – | – | trend toward decreased startle amplitude
